Assay [1] has as its system TNFα production in LPS-stimulated human monocytes. The assay can be described thus: Cot Monocyte TNFα Cell Based Assay. The settings on record: Homo sapiens, Monocyte, read-out: EC50 TNF. An outline of the steps: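 Percent-of-control values derive from TR-FRET ratios of TNFα in spun-down media, referenced to unstimulated and LPS-stimulated wells. Exposure: 1 h compound preincubation, then 50 pg/ml LPS for 4 h, both at 37 °C, with 0.5% final DMSO.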

The target in assay [2] is T1, human Cot catalytic domain (30-397 amino acids) (Homo sapiens, UniProt P41279).
T1 construct: Purified recombinant human Cot catalytic domain (30-397 amino acids) was purchased from Cama Biosciences; purchased Cama Biosciences (so in the source)
Kind of assay: High Throughput Cot Biochemical Assay (KinEASE TR-FRET). As to conditions: read-out: IC50 HTRF. The method, boiled down: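 Phosphorylation of 1 μM XL665-STK3 peptide by 5 nM Cot catalytic domain was measured by time-resolved FRET using a europium […] antibody. ATP was 400 μM; buffer was 10 mM MOPS pH 7.0 with Mg2+ and DTT.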

[3] abbreviates: LPS-stimulated human monocytes, TNFα TR-FRET.
Setting [4] is: Cot KinEASE TR-FRET, 400 μM ATP.
The mark [5] stands for this setting: TNFα in LPS-stimulated human monocytes.
[6] abbreviates: Cot biochemical HTRF (KinEASE TR-FRET) assay.
[7] abbreviates: Cot KinEASE TR-FRET (HTRF) biochemical assay, 400 μM ATP.

Read-outs that look alike come from different tables or passages of the source.

T1 sequence (P41279 30-397): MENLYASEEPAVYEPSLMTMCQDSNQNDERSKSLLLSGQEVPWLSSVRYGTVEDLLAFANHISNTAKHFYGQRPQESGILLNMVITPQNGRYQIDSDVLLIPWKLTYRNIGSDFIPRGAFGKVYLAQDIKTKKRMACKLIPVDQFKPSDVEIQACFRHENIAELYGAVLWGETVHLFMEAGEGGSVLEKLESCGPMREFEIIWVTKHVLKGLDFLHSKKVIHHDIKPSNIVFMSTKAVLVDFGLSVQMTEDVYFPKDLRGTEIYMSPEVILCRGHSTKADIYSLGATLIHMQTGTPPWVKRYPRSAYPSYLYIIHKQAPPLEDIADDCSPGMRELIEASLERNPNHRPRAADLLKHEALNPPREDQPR

Take `COc1c([C@@H](Nc2cc(Cl)c3ncc(C#N)c(NCC(C)(C)C)c3c2)c2ccccc2Cl)nnn1C1(C)CC1` [Example 1170, (S)-8-chloro-6-(((2-chlorophenyl)(5-methoxy-1-(1-methylcyclopropyl)-1H-1,2,3-triazol-4-yl)methyl)amino)-4-(neopentylamino)quinoline-3-carbonitrile]: the EC50 in assay [1] (setting [3]) is no less than 1000 nM. Further, the IC50 in assay [2] (setting [4]) came to 217 nM.
With `C[C@@H](Nc1c(C#N)cnc2c(Cl)cc(N[C@@H](c3ccc(Cl)cc3)c3c[nH]nn3)cc12)c1ccccc1` [Example 657, 8-chloro-6-(((S)-(4-chlorophenyl)(1H-1,2,3-triazol-4-yl)methyl)amino)-4-(((R)-1-phenylethyl)amino)quinoline-3-carbonitrile], the EC50 in assay [1] (setting [5]) amounted to 2490 nM. Moreover, in assay [2] (setting [6]), the IC50 came out at 143 nM.
On to `CC1(n2cc([C@@H](Nc3cc(Cl)c4ncc(C#N)c(N[C@H](CCC#N)c5ccccc5)c4c3)c3ccccc3Cl)nn2)CC1` [Example 72, 8-chloro-6-(((S)-(2-chlorophenyl)(1-(1-methylcyclopropyl)-1H-1,2,3-triazol-4-yl)methyl)amino)-4-(((R)-3-cyano-1-phenylpropyl)amino)quinoline-3-carbonitrile], for which the EC50 in assay [1] (setting [5]) came out at 66 nM. Moreover, the IC50 in assay [2] (setting [7]) turned out to be 2 nM.
For `[2H][C@](Nc1cc(C#N)c2ncc(C#N)c(NCC(C)(C)C)c2c1)(c1cn(C2(C#N)CC2)nn1)c1ccccc1Cl` [Example 1030, 6-(((2-chlorophenyl)(1-(1-cyanocyclopropyl)-1H-1,2,3-triazol-4-yl)methyl-d)amino)-4-(neopentylamino)quinoline-3,8-dicarbonitrile], in assay [1] (setting [3]), the EC50 stood at 82 nM. Also, the IC50 in assay [2] (setting [4]) came out at 5 nM.
The corresponding values for `CC(C)(C)CNc1c(C#N)cnc2c(Cl)cc(N[C@@H](c3ccccc3)c3cn(C45CC(C4)C5)nn3)cc12` [Example 1093, (S)-6-(((1-(bicyclo[1.1.1]pentan-1-yl)-1H-1,2,3-triazol-4-yl)(phenyl)methyl)amino)-8-chloro-4-(neopentylamino)quinoline-3-carbonitrile] are 424 nM and 17 nM.
Take `[2H]C(Nc1cc(Cl)c2ncc(C#N)c(NC3[C@H]4CCC[C@@H]34)c2c1)(c1ccc(F)cc1)c1cn(C2CC2)nn1` (stereo in doubt) [Example 117, 4-(((1R,5S)-bicyclo[3.1.0]hexan-6-yl)amino)-8-chloro-6-(((S)-(1-cyclopropyl-1H-1,2,3-triazol-4-yl) (4-fluorophenyl)methyl-d)amino)quinoline-3-carbonitrile]: the EC50 in assay [1] (setting [5]) was determined as 377 nM. Besides, the IC50 in assay [2] (setting [7]) turned out to be 16 nM.
As for `CC(C)(C)CNc1c(C#N)cnc2c(C#N)cc(N[C@@H](c3ccc(F)cc3)c3cn(C4(CO)CC4)nn3)cc12` [Example 979, (S)-6-(((4-fluorophenyl)(1-(1-(hydroxymethyl)cyclopropyl)-1H-1,2,3-triazol-4-yl)methyl)amino)-4-(neopentylamino)quinoline-3,8-dicarbonitrile], the EC50 in assay [1] (setting [3]) worked out at 103 nM. Further, the IC50 in assay [2] (setting [4]) came to 4 nM.
As to `[2H][C@](Nc1cc(Cl)c2ncc(C#N)c(NC3(CC)CC3)c2c1)(c1ccc(F)cc1)c1cn(C2CC2)nn1` [Example 216, (S)-8-chloro-6-(((1-cyclopropyl-1H-1,2,3-triazol-4-yl)(4-fluorophenyl)methyl-d)amino)-4-((1-ethylcyclopropyl)amino)quinoline-3-carbonitrile], in assay [1] (setting [5]), the EC50 worked out at 5720 nM. In addition, in assay [2] (setting [7]), the IC50 is 492 nM.
As for `CC[C@@H](Nc1c(C#N)cnc2c(Cl)cc(N[C@H](c3c[nH]nn3)c3cccc(F)c3F)cc12)c1ccccc1` [Example 445, 8-chloro-6-(((S)-(2,3-difluorophenyl)(1H-1,2,3-triazol-4-yl)methyl)amino)-4-(((R)-1-phenylpropyl)amino) quinoline-3-carbonitrile], the EC50 in assay [1] (setting [5]) was 1270 nM. In assay [2] (setting [6]), the IC50 was 46 nM.
For the compound `CC(C)(C)CNc1c(C#N)cnc2c(C#N)cc(N[C@@H](c3cccc(C(=O)N4CC(F)C4)c3)c3cn(C4CC4)nn3)cc12` [Compound 58], in assay [1] (setting [5]), the EC50 worked out at 269 nM. Besides, the IC50 in assay [2] (setting [7]) was 3 nM.
With `[2H][C@](Nc1cc(Cl)c2ncc(C#N)c(Nc3cncc(F)c3)c2c1)(c1ccc(F)cc1)c1cn(C(C)C)nn1` [Example 339, (S)-8-chloro-6-(((4-fluorophenyl)(1-isopropyl-1H-1,2,3-triazol-4-yl)methyl-d)amino)-4-((5-fluoropyridin-3-yl)amino)quinoline-3-carbonitrile], the EC50 in assay [1] (setting [5]) came to 1170 nM. Besides, the IC50 in assay [2] (setting [7]) amounted to 55 nM.
The matching figures for `[2H][C@](Nc1ccc2ncc(C#N)c(NCC(C)(C)C)c2c1)(c1ccc(F)cc1)c1cn(C2CC2)nn1` [Example 133, 6-(((1-cyclopropyl-1H-1,2,3-triazol-4-yl)(4-fluorophenyl)methyl-d)amino)-4-(neopentylamino) quinoline-3-carbonitrile]: 313 nM and 21 nM.
In the case of `CC(C)(C)N1CCC(n2cc([C@@H](Nc3cc(Cl)c4ncc(C#N)c(Nc5ccc(F)c(Cl)c5)c4c3)c3cccc(C(=O)N4CC(O)C4)c3)nn2)CC1` [Example 594, (S)-6-(((1-(1-(tert-butyl)piperidin-4-yl)-1H-1,2,3-triazol-4-yl)(3-(3-hydroxyazetidine-1-carbonyl)phenyl)methyl)amino)-8-chloro-4-((3-chloro-4-fluorophenyl)amino)quinoline-3-carbonitrile], in assay [1] (setting [5]), the EC50 came out at 1720 nM. Moreover, in assay [2] (setting [6]), the IC50 came out at 1 nM.
The matching figures for `CC(C)(C)N1CCC(n2cc([C@@H](Nc3cc(C#N)c4ncc(C#N)c(Nc5ccc(F)c(Cl)c5)c4c3)c3ccc(Cl)cc3)nn2)CC1` [Example 689, (S)-6-(((1-(1-(tert-butyl)piperidin-4-yl)-1H-1,2,3-triazol-4-yl)(4-chlorophenyl)methyl)amino)-4-((3-chloro-4-fluorophenyl)amino)quinoline-3,8-dicarbonitrile]: 343 nM and 11 nM.
The corresponding values for `CC(C)(C)N1CCC(n2cc([C@@H](Nc3cc(Cl)c4ncc(C#N)c(NC5CCOCC5)c4c3)c3ccc(Cl)cc3)nn2)CC1` [Example 662, (S)-6-(((1-(1-(tert-butyl)piperidin-4-yl)-1H-1,2,3-triazol-4-yl)(4-chlorophenyl)methyl)amino)-8-chloro-4-((tetrahydro-2H-pyran-4-yl)amino)quinoline-3-carbonitrile] are 1270 nM and 70 nM.
Consider `CC1(CNc2c(C#N)cnc3c(Cl)cc(N[C@@H](c4ccc(F)cc4)c4c[nH]nn4)cc23)CCOCC1` [Example 398, (S)-8-chloro-6-(((4-fluorophenyl)(1H-1,2,3-triazol-4-yl)methyl)amino)-4-(((4-methyltetrahydro-2H-pyran-4-yl)methyl)amino)quinoline-3-carbonitrile], for which, in assay [1] (setting [5]), the EC50 is 1050 nM. In addition, the IC50 in assay [2] (setting [7]) is 28 nM.
The matching figures for `CC(C)(C)CNc1c(C#N)cnc2c(Cl)cc(N[C@@H](c3ccc(F)cc3)c3cn(-c4ccncc4)nn3)cc12` [Example 393, (S)-8-chloro-6-(((4-fluorophenyl)(1-(pyridin-4-yl)-1H-1,2,3-triazol-4-yl)methyl)amino)-4-(neopentylamino)quinoline-3-carbonitrile]: 333 nM and 179 nM.
For the compound `CCN1CCC(n2cc([C@@H](Nc3ccc4ncc(C#N)c(Nc5ccc(F)c(Cl)c5)c4c3)c3ccccc3)nn2)CC1` [Example 779, (S)-4-((3-chloro-4-fluorophenyl)amino)-6-(((1-(1 ethylpiperidin-4-yl)-1H-1,2,3-triazol-4-yl)(phenyl)methyl)amino)quinoline-3-carbonitrile], the EC50 in assay [1] (setting [5]) stood at 196 nM. For the same compound, the IC50 in assay [2] (setting [6]) was determined as 4 nM.
In the case of `[2H][C@](Nc1cc(Cl)c2ncc(C#N)c(N[C@@H]3CCCCC3(C)C)c2c1)(c1ccc(F)cc1)c1cn(C2CC2)nn1` [Example 318, 8-chloro-6-(((S)-(1-cyclopropyl-1H-1,2,3-triazol-4-yl)(4-fluorophenyl)methyl-d)amino)-4-(((R)-2,2-dimethylcyclohexyl)amino) quinoline-3-carbonitrile], in assay [1] (setting [5]), the EC50 was 451 nM. For the same compound, the IC50 in assay [2] (setting [7]) was 34 nM.
Regarding `Cc1cc(C#N)ccc1[C@H](Nc1cc(C#N)c2ncc(C#N)c(NCC(C)(C)C)c2c1)c1cn(C2(C(F)(F)F)CC2)nn1` [Example 1140, (S)-6-(((4-cyano-2-methylphenyl)(1-(1-(trifluoromethyl)cyclopropyl)-1H-1,2,3-triazol-4-yl)methyl)amino)-4-(neopentylamino)quinoline-3,8-dicarbonitrile], in assay [1] (setting [3]), the EC50 amounted to 119 nM. In assay [2] (setting [4]), the IC50 is 22 nM.
On to `CC(C)(C)CNc1c(C#N)cnc2c(C#N)cc(N[C@@H](c3ccccc3)c3cn(C4(C(N)=O)CC4)nn3)cc12` [Example 975, (S)-1-(4-(((3,8-dicyano-4-(neopentylamino)quinolin-6-yl)amino)(phenyl)methyl)-1H-1,2,3-triazol-1-yl)cyclopropane-1-carboxamide], for which the EC50 in assay [1] (setting [3]) came out at 321 nM. In addition, the IC50 in assay [2] (setting [4]) came to 3 nM.
On to `CC(=O)Nc1cccc([C@H](Nc2cc(C#N)c3ncc(C#N)c(NCC(C)(C)C)c3c2)c2cn(C3CC3)nn2)c1` [Example 76, (S)-N-(3-((1-cyclopropyl-1H-1,2,3-triazol-4-yl)((3,8-dicyano-4-(neopentylamino)quinolin-6-yl)amino)methyl)phenyl)acetamide], for which, in assay [1] (setting [5]), the EC50 came out at 462 nM. The IC50 in assay [2] (setting [7]) amounted to 2 nM.

What is called EC50 is the concentration giving half of the maximal effect. What is called IC50 is the concentration that inhibits the measured activity by half.

The values above are taken from patent US10316017B2, “COT modulators and methods of use thereof” (Gilead Sciences, Inc., priority 2015, dated 2019).
